Assay results reported in PubChem BioAssay (NCI).
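Cultured in 96-well plates, cells were exposed to test compound for 48 hours across five concentrations. Definition used: TGI = concentration required for complete inhibition of growth.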

How the values were obtained:
Experiment in all cases: NCI tumour cell line growth inhibition, 48 h
A549 NSCLC = test system: A549 NSCLC
OVCAR-8 ovarian = test system: OVCAR-8 ovarian
MALME-3M melanoma = test system: MALME-3M melanoma
UACC-257 melanoma = test system: UACC-257 melanoma
SK-MEL-28 melanoma = test system: SK-MEL-28 melanoma
M14 melanoma = test system: M14 melanoma
SNB-19 CNS = test system: SNB-19 CNS
M19-MEL melanoma = test system: M19-MEL melanoma
HOP-62 NSCLC = test system: HOP-62 NSCLC
LXFL 529 NSCLC = test system: LXFL 529 NSCLC
NCI-H23 lung = test system: NCI-H23 lung
KM12 colon = test system: KM12 colon
UACC-62 melanoma = test system: UACC-62 melanoma
ACHN renal = test system: ACHN renal
UO-31 renal = test system: UO-31 renal
HL-60(TB) leukemia = test system: HL-60(TB) leukemia
SF-539 CNS = test system: SF-539 CNS
K-562 leukemia = test system: K-562 leukemia
SK-MEL-5 melanoma = test system: SK-MEL-5 melanoma
KM20L2 colon = test system: KM20L2 colon
HCC-2998 colon = test system: HCC-2998 colon
RPMI-8226 leukemia = test system: RPMI-8226 leukemia
LOX IMVI melanoma = test system: LOX IMVI melanoma
OVCAR-4 ovarian = test system: OVCAR-4 ovarian
TK-10 renal = test system: TK-10 renal
DLD-1 colon = test system: DLD-1 colon
NCI-H460 lung = test system: NCI-H460 lung
HT29 colon = test system: HT29 colon
OVCAR-5 ovarian = test system: OVCAR-5 ovarian
HOP-92 NSCLC = test system: HOP-92 NSCLC
EKVX NSCLC = test system: EKVX NSCLC
SF-295 CNS = test system: SF-295 CNS
HOP-18 NSCLC = test system: HOP-18 NSCLC
IGROV1 ovarian = test system: IGROV1 ovarian
SW-620 colon = test system: SW-620 colon
XF 498 CNS = test system: XF 498 CNS
MOLT-4 leukemia = test system: MOLT-4 leukemia
786-0 renal = test system: 786-0 renal
NCI-H522 lung = test system: NCI-H522 lung
NCI-H226 lung = test system: NCI-H226 lung
OVCAR-3 ovarian = test system: OVCAR-3 ovarian
DMS 114 small cell lung = test system: DMS 114 small cell lung
SN12C renal = test system: SN12C renal
SF-268 CNS = test system: SF-268 CNS
SK-MEL-2 melanoma = test system: SK-MEL-2 melanoma
CCRF-CEM leukemia = test system: CCRF-CEM leukemia
CAKI-1 renal = test system: CAKI-1 renal
U251 CNS = test system: U251 CNS
SNB-75 CNS = test system: SNB-75 CNS
SK-OV-3 ovarian = test system: SK-OV-3 ovarian
RXF 393 renal = test system: RXF 393 renal
HCT-15 colon = test system: HCT-15 colon
HCT-116 colon = test system: HCT-116 colon
A498 renal = test system: A498 renal
COLO 205 colon = test system: COLO 205 colon
DMS 273 small cell lung = test system: DMS 273 small cell lung

COc1cccc2c1C(=O)c1c(O)c3c(c(O)c1C2=O)C[C@@](O)(C(=O)CO)CC3OC1CC(N(C)CCOCC(OC(C)=O)OC(C)=O)C(O)C(C)O1 (some centres not stated)
TGI (A549 NSCLC): > 0.01 µM
TGI (OVCAR-8 ovarian): > 0.01 µM
TGI (MALME-3M melanoma): > 0.01 µM
TGI (UACC-257 melanoma): > 0.01 µM
TGI (SK-MEL-28 melanoma): > 0.01 µM
TGI (M14 melanoma): > 0.01 µM
TGI (SNB-19 CNS): > 0.01 µM
TGI (M19-MEL melanoma): > 10 nM
TGI (HOP-62 NSCLC): > 0.01 µM
TGI (LXFL 529 NSCLC): > 10 nM
TGI (NCI-H23 lung): > 0.01 µM
TGI (KM12 colon): > 0.01 µM
TGI (UACC-62 melanoma): > 0.01 µM
TGI (ACHN renal): > 0.01 µM
TGI (UO-31 renal): > 0.01 µM
TGI (HL-60(TB) leukemia): > 0.01 µM
TGI (SF-539 CNS): > 0.01 µM
TGI (K-562 leukemia): > 0.01 µM
TGI (SK-MEL-5 melanoma): > 0.01 µM
TGI (KM20L2 colon): > 0.01 µM
TGI (HCC-2998 colon): > 0.01 µM
TGI (RPMI-8226 leukemia): > 0.01 µM
TGI (LOX IMVI melanoma): > 0.01 µM
TGI (OVCAR-4 ovarian): > 0.01 µM
TGI (TK-10 renal): > 0.01 µM
TGI (DLD-1 colon): > 0.01 µM
TGI (NCI-H460 lung): > 0.01 µM
TGI (HT29 colon): > 0.01 µM
TGI (OVCAR-5 ovarian): > 0.01 µM
TGI (HOP-92 NSCLC): > 0.01 µM
TGI (EKVX NSCLC): > 0.01 µM
TGI (SF-295 CNS): > 0.01 µM
TGI (HOP-18 NSCLC): > 0.01 µM
TGI (IGROV1 ovarian): > 0.01 µM
TGI (SW-620 colon): > 0.01 µM
TGI (XF 498 CNS): > 0.01 µM
TGI (MOLT-4 leukemia): > 0.01 µM
TGI (786-0 renal): > 10 nM
TGI (NCI-H522 lung): > 10 nM
TGI (NCI-H226 lung): > 0.01 µM
TGI (OVCAR-3 ovarian): > 0.01 µM
TGI (DMS 114 small cell lung): > 0.01 µM
TGI (SN12C renal): > 0.01 µM
TGI (SF-268 CNS): > 0.01 µM
TGI (SK-MEL-2 melanoma): > 0.01 µM
TGI (CCRF-CEM leukemia): > 0.01 µM
TGI (CAKI-1 renal): > 10 nM
TGI (U251 CNS): > 0.01 µM
TGI (SNB-75 CNS): > 0.01 µM
TGI (SK-OV-3 ovarian): > 0.01 µM
TGI (RXF 393 renal): > 0.01 µM

CC(=O)CCC#Cc1ccccc1C(=O)C(C)=[N+]=[N-]
TGI (A549 NSCLC): > 100 µM
TGI (OVCAR-8 ovarian): > 100 µM
TGI (MALME-3M melanoma): 84.1 µM
TGI (UACC-257 melanoma): > 100 µM
TGI (SK-MEL-28 melanoma): > 100 µM
TGI (M14 melanoma): > 100 µM
TGI (HCT-15 colon): > 100 µM
TGI (SNB-19 CNS): > 100 µM
TGI (HCT-116 colon): 47.8 µM
TGI (HOP-62 NSCLC): > 100 µM
TGI (A498 renal): > 100 µM
TGI (NCI-H23 lung): > 100 µM
TGI (KM12 colon): > 100 µM
TGI (UACC-62 melanoma): 38.7 µM
TGI (ACHN renal): > 100 µM
TGI (UO-31 renal): > 100 µM
TGI (HL-60(TB) leukemia): > 100 µM
TGI (SF-539 CNS): > 100 µM
TGI (K-562 leukemia): > 100 µM
TGI (SK-MEL-5 melanoma): 33.1 µM
TGI (KM20L2 colon): > 100 µM
TGI (HCC-2998 colon): > 100 µM
TGI (RPMI-8226 leukemia): 68.3 µM
TGI (LOX IMVI melanoma): > 100 µM
TGI (OVCAR-4 ovarian): > 100 µM
TGI (TK-10 renal): > 100 µM
TGI (DLD-1 colon): > 100 µM
TGI (NCI-H460 lung): > 100 µM
TGI (COLO 205 colon): 39.6 µM
TGI (HT29 colon): > 100 µM
TGI (OVCAR-5 ovarian): > 100 µM
TGI (HOP-92 NSCLC): > 100 µM
TGI (EKVX NSCLC): > 100 µM
TGI (SF-295 CNS): > 100 µM
TGI (HOP-18 NSCLC): > 100 µM
TGI (IGROV1 ovarian): > 100 µM
TGI (DMS 273 small cell lung): 90.1 µM
TGI (SW-620 colon): > 100 µM
TGI (XF 498 CNS): 89.3 µM
TGI (MOLT-4 leukemia): 85.4 µM
TGI (NCI-H226 lung): > 100 µM
TGI (OVCAR-3 ovarian): > 100 µM
TGI (DMS 114 small cell lung): 42 µM
TGI (SN12C renal): > 100 µM
TGI (SF-268 CNS): > 100 µM
TGI (SK-MEL-2 melanoma): > 100 µM
TGI (CCRF-CEM leukemia): > 100 µM
TGI (U251 CNS): > 100 µM
TGI (SNB-75 CNS): 69.2 µM
TGI (SK-OV-3 ovarian): > 100 µM
TGI (RXF 393 renal): 97.5 µM
